Assay results: US8367659B2, “Oxazinyl isoflavonoid compounds, medicaments and use” (Marshall Edwards, Inc., priority 2007, dated 2013)
Read-outs that look alike come from different tables or passages of the source.

Assays:
[1] = test system: T cells; assay: T cell proliferation (ConA-stimulated mouse splenocytes, MTT); type: cell-based, Skh-1:HR 1 (hairless) mice; conditions: 10 μM, 3 days
Experimental: (§1) Male Skh-1:HR 1 (hairless) mice, approximately six weeks old were killed by cervical dislocation. Single cell suspensions were made from the spleen and erythrocytes were lysed in buffer (0.14 M NH4Cl, 17 mM Tris, pH 7.2). The remaining splenocytes were cultured in RPMI-1640 (Gibco) supplemented with 10% (v:v) FBS, 200 mM L-glutamine, penicillin/streptomycin and […] 2-mercaptoethanol. Splenocytes were added to quadruplicate wells containing either concanavalin A (ConA, Sigma-Aldrich—0.4 μg/well), LPS (Sigma-Aldrich—1 μg/well) or no mitogen, as well 10 μM of test compound in DMSO. Samples were analysed after 3 days incubation at 37° C. in 5% CO2 in air. Methylthiazoletetrazolium (MTT) is bioreduced by viable cells into a coloured formazan product that is soluble in DMSO. Thus the quantity of formazan product is directly proportional to the number of living cells in culture, and can be measured using a spectrophotometer at 570 nm. MTT was added to each well, incubated for a further 4 hrs and then colour developed with 0.04 N HCl in isopropanol. Culture supernatants were stored after collection at −80° C. and analysed by ELISA (BD Biosciences) for IFN-γ (a Th-1 cytokine) and for T cells alone, IL-6 (a Th-2 cytokine).

[2] = test system: IFN-γ; assay: IFN-γ synthesis by mouse splenocytes (ELISA); type: cell-based, Skh-1:HR 1 (hairless) mice; conditions: 10 μM; 3 days
Experimental: as §1

[3] = test system: Rabbit kidney (RK-13) cells; assay: Toxicity to normal cells, rabbit kidney (RK-13) cells; type: cell-based; conditions: Oryctolagus cuniculus
Experimental: IC50 values were determined for each cell line. Cells were seeded in 96-well plates at an appropriate cell density as determined from growth kinetics analysis and cultured for 5 days in the absence and presence of the test compounds. Cell proliferation was assessed after the addition of 20 μl of 3-4,5 dimethylthiazol-2,5-diphenyl tetrazolium bromide (MTT, 2.5 mg/ml in PBS, Sigma) for 3-4 hrs at 37° C. according to manufacturer's instructions. IC50 values were calculated from semi-log plots of % of control proliferation on the y-axis against log dose on the x-axis.
The neonatal foreskin fibroblasts (NFF) were a gift from Dr. Peter Parsons (Queensland Institute of Medical Research). Rabbit kidney (RK-13) cells were obtained from Miller Whalley (Macquarie University). Both cell lines were cultured in RPMI supplemented with 10% FCS(CSL, Australia), penicillin (100 U/ml), streptomycin ([…]), L-glutamine (2 mM) and sodium bicarbonate (1.2 g/L), and cultured at 37° C. in a humidified atmosphere of 5% CO2. IC50 values were determined as described above.

[4] = test system: TXB2 synthesis in RAW 264.7 murine macrophages; assay: LPS-induced TXB2 synthesis in RAW 264.7 murine macrophages; type: cell-based, mouse; conditions: 10 μM; relative to vehicle alone; FIG. 4
Experimental: (§2) The mouse macrophage cell line RAW 264.7 was cultured in DMEM supplemented with foetal calf serum (FCS), […] glutamine and 50 U/ml penicillin/streptomycin. Cells were treated with either test compound (in 0.025% DMSO) or vehicle alone, and added one hour before 50 ng/ml LPS. After incubation for 24 h, culture media was collected for PGE2 or TXB2 measurement by ELISA (Cayman Chemical), and TNFα measurement using an ELISA (Becton Dickinson). Test compounds were examined a concentration of 10 μM. […] Consequently, to assess the effect of test compounds on various analytes, cell viability was taken into consideration with the use of the formula: Actual effect of test compound=measured effect−(effect on cell viability×measured effect)

[5] = test system: TNFα synthesis in human peripheral blood monocytes; assay: Synthesis of TNFα by human monocytes stimulated with LPS; type: cell-based; conditions: FIGS. 1a, 1b
Experimental: Human peripheral blood monocytes were isolated from buffy coats by lyrnpboprep gradient separation of mononuclear cells followed by counter-current centrifugal elutriation (Demasi et al. 2000). Test compounds were dissolved in DMSO and added to fresh monocytes to achieve concentrations of 0, 10 and 100 μM. After 30 min, LPS was added to achieve a final concentration of 200 ng/mL. After 1 h, supernatants were removed and TNFα measured by ELISA previously described (Demasi et al. 2003). ANOVA followed by Newman-Keuls multiple comparisons test was used to examine differences between doses and the control values.

[6] = test system: B cells; assay: B cell proliferation (LPS-stimulated mouse splenocytes, MTT); type: cell-based, Skh-1:HR 1 (hairless) mice; conditions: 10 μM, 3 days
Experimental: as §1

[7] = test system: PGE2 synthesis in RAW 264.7 murine macrophages; assay: LPS-induced PGE2 synthesis in RAW 264.7 murine macrophages; type: cell-based, mouse; conditions: 10 μM; relative to vehicle alone; FIG. 3
Experimental: as §2

[8] = test system: caspase-3/7 activity in A7r5 rat aortic smooth muscle cells; assay: Caspase-3/7 activity (apoptosis) in A7r5 rat aortic smooth muscle cells; type: cell-based; conditions: 10, 50 and 100 μM; FIG. 14
Text: Activation of the caspase cascade is an integral event in the apoptotic pathway. Caspase-3 is one of the important “executioner” caspase enzymes, triggering the cleavage of numerous proteins that lead to the ordered breakdown of cells. The detection of caspase-3 activation is frequently used as a positive marker for apoptosis. A homogeneous luminescent caspase-3/7 assay, the Caspase-Glo™ 3/7 Assay (Promega Corp.) was used to provide an extremely sensitive measure of caspase activation. VSMC were incubated with different concentrations (0 [vehicle alone], 10, 50 and 100 μM) of test compounds. The assay used a proluminescent substrate containing the DEVD sequence recognized by caspase-3 and -7. The caspase-Glo™ 3/7 Reagent produced luminescence that is directly proportional to the amount of caspase-3/7 activity. The luminescence is linear over four orders of magnitude of caspase concentration and over a broad range of cell densities.

Structure (SMILES)	effect on T cells [1]	synthesis of INF-γ into the supernatant [2]	IC50 ([3]; normal, non-transformed cells, read-out: IC50 μM, RK Rabbit Kidney) [µM]	IC50 ([3]; read-out: toxicity to RK-13 cells (IC50)) [µM]	mean change of LPS-induced TXB2 synthesis [4]	effect on synthesis of TNFα [5]	effect on B cells [6]	mean change of LPS-induced PGE2 synthesis [7]	induction of caspase-3/7 activity, apoptosis [8]
CC(c1ccccc1)N1COc2cc3c(cc2C1)C=C(c1ccc(O)cc1)CO3 (stereo not drawn) [Compound 2, 4-(3-(1-Phenylethyl)-2,3,4,8-tetrahydrochromeno[6,7-e][1,3]oxazin-7-yl)phenol]	markedly and significantly immunosuppressive	concomitant reduction	53.3	> 30	greatest inhibition	reduce the synthesis of TNFα	markedly and significantly immunosuppressive	greatest inhibition	–
Oc1cccc(C2=Cc3ccc(O)cc3OC2)c1 [Compound 37-DHE, 3′,7-dihydroxy-isoflav-3-ene, reference compound]	–	–	–	–	–	–	–	–	no activity
